Test results reported in the supplement of paper PMC10307832.

Legend:
Ibrutinib = compound: C=CC(=O)N1CCC[C@@H](n2nc(-c3ccc(Oc4ccccc4)cc3)c3c(N)ncnc32)C1 [Ibrutinib]; assay: relative viability (nuclei count vs DMSO), 5 days (fraction); higher = more cells survive
In short: (§1)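 A plate was accepted only when its control CV was below 25% and the cells had doubled at least once. Viability is defined from nuclear counts as treated wells divided by vehicle wells, with the median taken across plates. That median covers lung cancer cell lines grown in 1536-well plates, dosed by pinning at five √10-spaced library-drug concentrations, and counted in MetaXpress from 4× Hoechst images after 5 days.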

BMX-IN-1 = compound: C=CC(=O)Nc1cc(-n2c(=O)ccc3cnc4ccc(-c5ccc(NS(C)(=O)=O)cc5)cc4c32)ccc1C [BMX-IN-1]; assay: as above
In short: as §1

Cell Line: SK-MES-1
- relative viability (Ibrutinib; 0.01581 µM): 0.989
- relative viability (Ibrutinib; 0.05 µM): 0.888
- relative viability (Ibrutinib; 0.1581 µM): 1.02
- relative viability (Ibrutinib; 0.5 µM): 0.543
- relative viability (BMX-IN-1; 0.02 µM): 1.1
- relative viability (BMX-IN-1; 0.2 µM): 1.1
- relative viability (BMX-IN-1; 0.6325 µM): 1.11
- relative viability (BMX-IN-1; 2 µM): 0.998
